Data taken from paper PMC5103170, “Total Synthesis, Structure, and Biological Activity of Adenosylrhodibalamin, the Non‐Natural Rhodium Homologue of Coenzyme B12” (Angewandte Chemie (International Ed. in English), 2016).

Target: T1, 1,2-propanediol dehydratase (PduCDE) (Citrobacter freundii, UniProt P0DUM7+P0DUM8)
T1 construct: gene pduC; purified enzyme, alpha2beta2gamma2; construct details only in Supporting Information; with Propanediol dehydratase small subunit
T1 sequence (P0DUM7 1-554): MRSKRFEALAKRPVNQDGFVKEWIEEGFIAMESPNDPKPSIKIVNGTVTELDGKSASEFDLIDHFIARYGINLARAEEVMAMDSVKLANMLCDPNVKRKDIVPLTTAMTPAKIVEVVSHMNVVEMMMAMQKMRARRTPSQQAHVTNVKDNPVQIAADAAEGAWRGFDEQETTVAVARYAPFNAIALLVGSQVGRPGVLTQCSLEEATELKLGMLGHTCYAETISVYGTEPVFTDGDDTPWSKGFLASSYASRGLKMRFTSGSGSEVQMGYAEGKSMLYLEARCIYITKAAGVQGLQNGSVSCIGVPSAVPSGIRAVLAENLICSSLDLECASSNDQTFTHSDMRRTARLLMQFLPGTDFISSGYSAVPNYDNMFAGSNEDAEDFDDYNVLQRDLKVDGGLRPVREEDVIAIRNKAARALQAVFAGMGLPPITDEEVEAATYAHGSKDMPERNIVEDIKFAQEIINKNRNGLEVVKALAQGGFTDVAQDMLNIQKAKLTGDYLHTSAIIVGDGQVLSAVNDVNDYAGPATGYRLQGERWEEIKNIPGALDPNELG
T1 sequence (P0DUM8 1-224): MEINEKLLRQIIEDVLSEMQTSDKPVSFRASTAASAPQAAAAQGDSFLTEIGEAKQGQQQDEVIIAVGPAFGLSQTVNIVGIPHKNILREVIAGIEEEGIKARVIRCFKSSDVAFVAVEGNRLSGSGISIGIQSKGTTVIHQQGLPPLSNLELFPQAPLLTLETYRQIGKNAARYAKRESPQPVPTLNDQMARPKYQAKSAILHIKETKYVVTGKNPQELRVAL
T1 sequence (P0DUM9 1-172 partner): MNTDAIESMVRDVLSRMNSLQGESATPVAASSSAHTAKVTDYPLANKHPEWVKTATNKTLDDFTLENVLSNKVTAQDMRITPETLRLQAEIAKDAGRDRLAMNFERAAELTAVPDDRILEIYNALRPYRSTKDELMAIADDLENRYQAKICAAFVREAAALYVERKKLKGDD
Assay: enzyme inhibition kinetics, non-linear regression
Type: biochemical
Conditions: competitive with AdoCbl

Substance | Ki (inactive as pseudo-coenzyme) | Ki
AdoRbl | 6.9 µM | 
vitamin B12 |  | 2.5 µM
